Assay results as given in ChEMBL document CHEMBL3044544, “Synthesis, preliminary cytotoxicity evaluation of new 3-formylchromone hydrazones and phosphorohydrazone derivatives of coumarin and chromone” (Med Chem Res, 2012).
Structures can show the parent of a compound that is named as a salt. Activity calls are given as the source filed them. The calls are words filed in the database; no cut-off is given here.

Legend:
Format in all cases: functional, cell-based
HL-60 [1] = test: Cytotoxicity against Homo sapiens (human) HL60 cells assessed as reduction in cell survival fraction after 48 hr by MTT assay; settings: HL-60, 48 h
NALM-6 = test: Cytotoxicity against Homo sapiens (human) NALM6 cells assessed as reduction in cell survival fraction after 48 hr by MTT assay; settings: NALM-6, 48 h
[2] = Cytotoxicity against Homo sapiens (human) HL60/ADR cells assessed as reduction in cell survival fraction after 48 hr by MTT assay
HL-60 [3] = test: Induction of apoptosis in Homo sapiens (human) HL60 cells assessed as increase in cytosolic cytochrome c level at 0.2 times IC50 after 0.5 hr by ELISA
HL-60 [4] = test: Induction of apoptosis in Homo sapiens (human) HL60 cells assessed as increase in cytosolic cytochrome c level after 0.5 to 4 hr by ELISA
HL-60 [5] = test: Induction of apoptosis in Homo sapiens (human) HL60 cells assessed as increase in cytosolic cytochrome c level at 0.2 to 5 times IC50 by ELISA; settings: TDE = time-dependent effect
HL-60 [6] = test: Induction of apoptosis in Homo sapiens (human) HL60 cells assessed as increase in cytosolic cytochrome c level at 5 times IC50 after 0.5 hr by ELISA
HL-60 [7] = test: Induction of apoptosis in Homo sapiens (human) HL60 cells assessed as increase in cytosolic cytochrome c level at IC50 after 0.5 hr by ELISA

**Q.** Which results are given for Cc1cc2oc(N)c(/C=N/NCCO)c(=O)c2cc1C?
**A.** IC50 (HL-60 [1]): 23.5 µM; IC50 (NALM-6): 65.3 µM

**Q.** What does the source list for Nc1oc2ccccc2c(=O)c1/C=N/N=C(c1ccccc1)c1ccccc1?
**A.** IC50 [2]: 54.8 µM; IC50 (HL-60 [1]): 56.2 µM; IC50 (NALM-6): 102 µM

**Q.** Which results are given for COC(=O)N/N=C/c1c(N)oc2ccccc2c1=O?
**A.** IC50 (HL-60 [1]): 463 µM; IC50 (NALM-6): 407 µM

**Q.** Which IC50 (HL-60 [1]) does the source give for Nc1oc2ccccc2c(=O)c1/C=N/NCCO here?
**A.** The IC50 was 48.5 µM.

**Q.** What about the IC50 (NALM-6) of the same compound?
**A.** The IC50 was 42.1 µM.

**Q.** For Nc1oc2ccc(Cl)cc2c(=O)c1/C=N/NCCO, which Activity (HL-60 [3]) is on record?
**A.** Its Activity is “Active”.

**Q.** And the IC50 [2]?
**A.** Its IC50 is 7.9 µM.

**Q.** And the IC50 (HL-60 [1])?
**A.** The IC50 was 6.6 µM.

**Q.** What about the Activity (HL-60 [4]) of the same compound?
**A.** Its Activity is “Dose-dependent effect”.

**Q.** And the Activity (HL-60 [5])?
**A.** Its Activity is “tde”.

**Q.** And the IC50 (NALM-6)?
**A.** Its IC50 is 28 µM.

**Q.** What about the Activity (HL-60 [6]) of the same compound?
**A.** Its Activity is “Active”.

**Q.** What about the Activity (HL-60 [7]) of the same compound?
**A.** Its Activity is “Active”.

**Q.** Which IC50 (HL-60 [1]) does the source give for Nc1oc2ccccc2c(=O)c1/C=N/Nc1cc(Cl)ccc1Cl here?
**A.** Its IC50 is over 1000 µM.

**Q.** And the IC50 (NALM-6)?
**A.** The IC50 was 500 µM.

**Q.** Which Activity (HL-60 [3]) does the source give for COP(=S)(OC)N(C)/N=C/c1coc2ccccc2c1=O here?
**A.** Its Activity is “Active”.

**Q.** And the IC50 [2]?
**A.** The IC50 was 30.6 µM.

**Q.** And the IC50 (HL-60 [1])?
**A.** The IC50 was 34.4 µM.

**Q.** And the Activity (HL-60 [4])?
**A.** The Activity was “Dose-dependent effect”.

**Q.** What about the Activity (HL-60 [5]) of the same compound?
**A.** Its Activity is “tde”.

**Q.** What about the IC50 (NALM-6) of the same compound?
**A.** The IC50 was 28.8 µM.

**Q.** What about the Activity (HL-60 [6]) of the same compound?
**A.** Its Activity is “Active”.

**Q.** And the Activity (HL-60 [7])?
**A.** Its Activity is “Active”.

**Q.** Which IC50 (HL-60 [1]) does the source give for CC(=O)CC(c1ccccc1)c1c(O)c2ccccc2oc1=O (stereo not given) [WARFARIN] here?
**A.** Its IC50 is 486 µM.

**Q.** What about the IC50 (NALM-6) of the same compound?
**A.** The IC50 was 74.8 µM.

**Q.** What does the source list for COP(=S)(OC)N(C)/N=C/c1c(O)c2ccccc2oc1=O?
**A.** IC50 (HL-60 [1]): 61.8 µM; IC50 (NALM-6): 56.5 µM

**Q.** Which IC50 (HL-60 [1]) does the source give for COc1cccc2c1C(=O)c1c(O)c3c(c(O)c1C2=O)C[C@@](O)(C(=O)CO)C[C@@H]3O[C@H]1C[C@H](N)[C@H](O)[C@H](C)O1 [DOXORUBICIN HYDROCHLORIDE] here?
**A.** Its IC50 is 0.04 µM.

**Q.** Which results are given for CCOP(=S)(OCC)N(C)/N=C/c1c(O)c2ccccc2oc1=O?
**A.** IC50 (HL-60 [1]): 86.3 µM; IC50 (NALM-6): 66.5 µM

**Q.** With O=c1c(/C=N/Nc2cc(Cl)ccc2Cl)coc2ccccc12 as the compound, how does the IC50 (HL-60 [1]) read?
**A.** The IC50 was 265 µM.

**Q.** And the IC50 (NALM-6)?
**A.** The IC50 was 85.3 µM.

**Q.** For COC(=O)N/N=C/c1coc2ccccc2c1=O, which IC50 (HL-60 [1]) is on record?
**A.** Its IC50 is 371 µM.

**Q.** What about the IC50 (NALM-6) of the same compound?
**A.** Its IC50 is 309 µM.

**Q.** What does the source list for Nc1oc2ccccc2c(=O)c1/C=N/Nc1ccc(C(=O)O)cc1?
**A.** IC50 (HL-60 [1]): 940 µM; IC50 (NALM-6): 628 µM
